Here are results for 6 molecules from article PMC12189828, “Substitution of Proline Residues by 4-Fluoro-L-Proline Affects the Mechanism of the Proline-Rich Antimicrobial Peptide Api137” (Antibiotics, 2025).

Where a SMILES comes first, the peptide text is derived from it. [ ]: non-standard residue; d: D form. The star is where a group is joined. Orn(α-tetramethylguanidino) = CN(C)C(=N[C@@H](CCCN)C(=O)*)N(C)C; Pro(trans-4-F) = O=C(O)[C@@H]1C[C@@H](F)CN1; Pro(cis-4-F) = O=C(O)[C@@H]1C[C@H](F)CN1

The subject of assay [1] is in vitro expression of sfGFP in the presence of RF1. The experiment in a line: In vitro transcription-translation (iTT) assay of sfGFP in the presence of RF1. The format is biochemical. As to conditions: peptide 5 µmol/L, RF1, 37 °C, 2 h, fluorescence, normalized to absence of PrAMPs, n = 3. The protocol:
The sfGFP expression analysis relied on the NEB PureExpress Delta RF123 Kit (New England Biolabs, Frankfurt, Germany). The DNA template encoding sfGFP with a UAG stop codon was amplified from the pY71sfGFP vector by PCR using the primers sfGFP fwd ([…]) and sfGFP rev ([…]). The release factor RF1 of the kit was diluted 50-fold (v/v) in 1× Pure System Buffer (PSB, 1 mol/L magnesium acetate, 0.5 mol/L K3PO4 (pH 7.3), 1 mol/L potassium glutamate, 1 mol/L NH4Cl, 0.5 mol/L CaCl2, 1 mol/L spermidine, 0.1 mol/L putrescine, 0.1 mol/L DTT). sfGFP expression was performed in a freshly prepared mixture of kit solution A (2 µL), kit solution B (1.5 µL), 50-fold diluted RF1 (0.5 µL), sfGFP template (0.1325 pmol, 35 ng) or water as control (0.25 µL), PSB (0.25 µL), and a PrAMP (50 or 0 µmol/L) dissolved in water (0.5 µL). The reaction mixture was transferred to a black 384-well plate (flat bottom, PS, 784900, Greiner Bio-One GmbH), covered with a lid, and incubated (37 °C, 2 h) in a microplate reader (Gemini EM, Molecular Devices, San Jose, CA, USA). Fluorescence was recorded every 10 min (λex = 485 nm, λem = 535 nm).

The test system of assay [2] is 50S subunit assembly / 70S ribosome in E. coli RN31. The experiment in a line: Ribosome profile analysis (RPA), sucrose gradient of E. coli RN31 lysate. It counts as cell-based, Escherichia coli. As to conditions: 90 min; for RPA [pre-50S formation]: E. coli RN31, 33% TSB, peptide 8 µg/mL, 5–25% sucrose gradient, n = 2 (Api137 n = 7). The protocol:
E. coli RN31 was grown in 33% TSB (37 °C, 200 rpm) from a starting OD600 of 0.05 to an OD600 of 0.2, measured on a NanoPhotometer® (NP80; Implen; Westlake Village, CA, USA), and divided into subcultures that were inoculated with a peptide ([…]) before being cultured for 90 min (37 °C, 200 rpm). The following steps were performed on ice. Cells were harvested by centrifugation (4000× g, 4 °C, 25 min), washed with TICO buffer (20 mmol/L Hepes-KOH, pH 7.6, 6 mmol/L MgAc2, 30 mmol/L KAc), centrifuged (4000× g, 25 min, 4 °C), and stored at −80 °C. The cell pellet was suspended in TICO buffer (500 µL) and mixed with silica beads (zirconium glass pellets, 100 µm diameter; Carl Roth; Karlsruhe, Germany) to lyse the cells on a FastPrep-24^TM 5G (MP Biomedicals, Solon, OH, USA) using three disruption cycles (30 s, 6.0 m/s) interrupted by 1 min of incubation on ice after each cycle. Cell debris was removed by centrifugation (5000× g, 4 °C, 5 min), the supernatant was transferred to a new reaction tube, centrifuged (20,000× g, 4 °C, 20 min), the absorbance was recorded at 260 nm on a NanoPhotometer® NP80, and the sample was stored at −80 °C.
A 5% (w/v) sucrose solution (6.5 mL) in TICO buffer containing 2-mercaptoethanol (4 mmol/L) was poured into an open-top centrifuge tube (13.2 mL, 14 × 89 mm, Beckman Coulter) and bottomed with a 25% (w/v) sucrose solution (6.5 mL) in TICO buffer containing 2-mercaptoethanol (4 mmol/L) using a cannula. The tube was sealed with parafilm and placed horizontally at 4 °C for 3 h and vertically at 4 °C for 30 min. A portion of the upper layer (550 µL) was replaced by lysate (500 µL, A260 = 30) and centrifuged using a swing-out rotor (SW 41 Ti, 52,500× g, 4 °C, 19 h) without a brake. The contents were transferred from bottom-up to obtain equal volumes in all wells of a black 96-well plate with a flat bottom (96 Well PP black Greiner Bio-One GmbH, Frickenhausen, Germany) using the Äkta Purifier 10 system, and absorbance was recorded at a wavelength of 254 nm. Fluorescence was measured in the plate using the PARADIGM at excitation (λex) and emission (λem) wavelengths of 485 nm and 535 nm for eGFP and 585 nm and 635 nm, respectively, for mCherry and normalized to the 70S ribosome peak (set to 100%).

The next assay relates to E. coli RN31. In words: Growth inhibition of E. coli RN31 during 90 min exponential growth phase. It counts as cell-based, Escherichia coli. To be noted: E. coli RN31, 33% TSB, peptide 8 µg/mL, 90 min, OD600; two biological replicates (n = 2). How it is done:
The following steps were performed on ice. Cells were harvested by centrifugation (4000× g, 4 °C, 25 min), washed with TICO buffer (20 mmol/L Hepes-KOH, pH 7.6, 6 mmol/L MgAc2, 30 mmol/L KAc), centrifuged (4000× g, 25 min, 4 °C), and stored at −80 °C. The cell pellet was suspended in TICO buffer (500 µL) and mixed with silica beads (zirconium glass pellets, 100 µm diameter; Carl Roth; Karlsruhe, Germany) to lyse the cells on a FastPrep-24^TM 5G (MP Biomedicals, Solon, OH, USA) using three disruption cycles (30 s, 6.0 m/s) interrupted by 1 min of incubation on ice after each cycle. Cell debris was removed by centrifugation (5000× g, 4 °C, 5 min), the supernatant was transferred to a new reaction tube, centrifuged (20,000× g, 4 °C, 20 min), the absorbance was recorded at 260 nm on a NanoPhotometer® NP80, and the sample was stored at −80 °C. […]

For the molecule `CC[C@H](C)[C@H](NC(=O)[C@H](Cc1ccc(O)cc1)NC(=O)[C@@H](NC(=O)[C@@H]1CCCN1C(=O)[C@H](CCCNC(=N)N)NC(=O)[C@H](CC(N)=O)NC(=O)[C@H](CC(N)=O)NC(=O)[C@H](CCCN)N=C(N(C)C)N(C)C)C(C)C)C(=O)N1CCC[C@H]1C(=O)N[C@@H](CCCNC(=N)N)C(=O)N1C[C@@H](F)C[C@H]1C(=O)N[C@@H](CCCNC(=N)N)C(=O)N1CCC[C@H]1C(=O)N1CCC[C@H]1C(=O)N[C@@H](Cc1c[nH]cn1)C(=O)N1CCC[C@H]1C(=O)N[C@@H](CCCNC(=N)N)C(=O)N[C@@H](CC(C)C)C(=O)O` [Api841] ({Orn(α-tetramethylguanidino)}-NNRPVYIPR[Pro(cis-4-F)]RPPHPRL-OH), the “Residual iTT (sfGFP expression relative to no PrAMP)” value in assay [1] was 32 ± 0.9%. Further, in assay [2], the “RPA [pre-50S formation]” value was “yes”. Also, in the assay with E. coli RN31, the “reduction of bacterial growth vs untreated control” value (from here on “reduction of bacterial growth”) is 65%.
The like results for `CC[C@H](C)[C@H](NC(=O)[C@H](Cc1ccc(O)cc1)NC(=O)[C@@H](NC(=O)[C@@H]1CCCN1C(=O)[C@H](CCCNC(=N)N)NC(=O)[C@H](CC(N)=O)NC(=O)[C@H](CC(N)=O)NC(=O)[C@H](CCCN)N=C(N(C)C)N(C)C)C(C)C)C(=O)N1CCC[C@H]1C(=O)N[C@@H](CCCNC(=N)N)C(=O)N1C[C@H](F)C[C@H]1C(=O)N[C@@H](CCCNC(=N)N)C(=O)N1CCC[C@H]1C(=O)N1CCC[C@H]1C(=O)N[C@@H](Cc1c[nH]cn1)C(=O)N1CCC[C@H]1C(=O)N[C@@H](CCCNC(=N)N)C(=O)N[C@@H](CC(C)C)C(=O)O` [Api842] ({Orn(α-tetramethylguanidino)}-NNRPVYIPR[Pro(trans-4-F)]RPPHPRL-OH) were, in that order, 31 ± 0.7%, “reduced” and 49%.
The like results for `CC[C@H](C)[C@H](NC(=O)[C@H](Cc1ccc(O)cc1)NC(=O)[C@@H](NC(=O)[C@@H]1CCCN1C(=O)[C@H](CCCNC(=N)N)NC(=O)[C@H](CC(N)=O)NC(=O)[C@H](CC(N)=O)NC(=O)[C@H](CCCN)N=C(N(C)C)N(C)C)C(C)C)C(=O)N1CCC[C@H]1C(=O)N[C@@H](CCCNC(=N)N)C(=O)N1CCC[C@H]1C(=O)N[C@@H](CCCNC(=N)N)C(=O)N1C[C@@H](F)C[C@H]1C(=O)N1CCC[C@H]1C(=O)N[C@@H](Cc1c[nH]cn1)C(=O)N1CCC[C@H]1C(=O)N[C@@H](CCCNC(=N)N)C(=O)N[C@@H](CC(C)C)C(=O)O` [Api843] ({Orn(α-tetramethylguanidino)}-NNRPVYIPRPR[Pro(cis-4-F)]PHPRL-OH) were, in that order, 28 ± 3.2%, “yes” and 56%.
For the molecule `CC[C@H](C)[C@H](NC(=O)[C@H](Cc1ccc(O)cc1)NC(=O)[C@@H](NC(=O)[C@@H]1CCCN1C(=O)[C@H](CCCNC(=N)N)NC(=O)[C@H](CC(N)=O)NC(=O)[C@H](CC(N)=O)NC(=O)[C@H](CCCN)N=C(N(C)C)N(C)C)C(C)C)C(=O)N1C[C@@H](F)C[C@H]1C(=O)N[C@@H](CCCNC(=N)N)C(=O)N1CCC[C@H]1C(=O)N[C@@H](CCCNC(=N)N)C(=O)N1CCC[C@H]1C(=O)N1CCC[C@H]1C(=O)N[C@@H](Cc1c[nH]cn1)C(=O)N1CCC[C@H]1C(=O)N[C@@H](CCCNC(=N)N)C(=O)N[C@@H](CC(C)C)C(=O)O` [Api845] ({Orn(α-tetramethylguanidino)}-NNRPVYI[Pro(cis-4-F)]RPRPPHPRL-OH), the “Residual iTT (sfGFP expression relative to no PrAMP)” value in assay [1] turned out to be 26 ± 5.7%. The “RPA [pre-50S formation]” value in assay [2] is on record as “yes”. Besides, the “reduction of bacterial growth” value in the assay with E. coli RN31 worked out at 62%.
Take `CC[C@H](C)[C@H](NC(=O)[C@H](Cc1ccc(O)cc1)NC(=O)[C@@H](NC(=O)[C@@H]1CCCN1C(=O)[C@H](CCCNC(=N)N)NC(=O)[C@H](CC(N)=O)NC(=O)[C@H](CC(N)=O)NC(=O)[C@H](CCCN)N=C(N(C)C)N(C)C)C(C)C)C(=O)N1C[C@H](F)C[C@H]1C(=O)N[C@@H](CCCNC(=N)N)C(=O)N1CCC[C@H]1C(=O)N[C@@H](CCCNC(=N)N)C(=O)N1CCC[C@H]1C(=O)N1CCC[C@H]1C(=O)N[C@@H](Cc1c[nH]cn1)C(=O)N1CCC[C@H]1C(=O)N[C@@H](CCCNC(=N)N)C(=O)N[C@@H](CC(C)C)C(=O)O` [Api846] ({Orn(α-tetramethylguanidino)}-NNRPVYI[Pro(trans-4-F)]RPRPPHPRL-OH): the “Residual iTT (sfGFP expression relative to no PrAMP)” value in assay [1] worked out at 33 ± 3.5%. Moreover, in assay [2], the “RPA [pre-50S formation]” value is “no”. Besides, the “70S peak (area) relative to untreated control” value in assay [2] (E. coli RN31, peptide 8 µg/mL, sucrose gradient profile) is recorded as ~ 45%. Further, the “reduction of bacterial growth” value with E. coli RN31 turned out to be 34%.
As for `CC[C@H](C)[C@H](NC(=O)[C@H](Cc1ccc(O)cc1)NC(=O)[C@@H](NC(=O)[C@@H]1CCCN1C(=O)[C@H](CCCNC(=N)N)NC(=O)[C@H](CC(N)=O)NC(=O)[C@H](CC(N)=O)NC(=O)[C@H](CCCN)N=C(N(C)C)N(C)C)C(C)C)C(=O)N1CCC[C@H]1C(=O)N[C@@H](CCCNC(=N)N)C(=O)N1CCC[C@H]1C(=O)N[C@@H](CCCNC(=N)N)C(=O)N1CCC[C@H]1C(=O)N1CCC[C@H]1C(=O)N[C@@H](Cc1c[nH]cn1)C(=O)N1C[C@@H](F)C[C@H]1C(=O)N[C@@H](CCCNC(=N)N)C(=O)N[C@@H](CC(C)C)C(=O)O` [Api849] ({Orn(α-tetramethylguanidino)}-NNRPVYIPRPRPPH[Pro(cis-4-F)]RL-OH), the “Residual iTT (sfGFP expression relative to no PrAMP)” value in assay [1] (listed as 4S-Fpr16) is listed as 63%; in assay [1] (listed as Pro16 4S-Fpr (cis)) it was 63 ± 8.9%. Also, the “RPA [pre-50S formation]” value in assay [2] is “no”. Moreover, the “reduction of bacterial growth” value with E. coli RN31 is 16%.
